Experiments:
human α4β2-nAChR = human α4β2-nAChR (Homo sapiens, UniProt P17787+P43681); assay: 86Rb+ efflux assay, SH-EP1-hα4β2 cells; assay type: cell-based
human NET = human NET (Homo sapiens, UniProt P23975); assay: cell-based; assay type: cell-based
human α3β4*-nAChR = human α3β4*-nAChR (Homo sapiens, UniProt P30926+P32297); assay: 86Rb+ efflux assay, SH-SY5Y cells; assay type: cell-based
human DAT = human DAT (Homo sapiens, UniProt Q01959); assay: cell-based; assay type: cell-based
human α4β4-nAChR = human α4β4-nAChR (Homo sapiens, UniProt P30926+P43681); assay: 86Rb+ efflux assay, SH-EP1-hα4β4 cells; assay type: cell-based
[1] = target: human muscle-type α1β1γδ- (α1*-) nAChR (Homo sapiens, UniProt P02708+P07510+P11230+Q07001); assay: 86Rb+ efflux assay, TE671/RD cells; assay type: cell-based
[2] = system: nicotine-induced antinociception (tail-flick); assay: Blockade of nicotine-induced antinociception, tail-flick test; assay type: in vivo, mice; conditions: ratio of AD50 values, relative to 2a

## CC(C(=O)c1cccc(F)c1)N1CCCC1 (stereo not drawn) [Compound 2aa, 2-(N-Pyrrolidinyl)-3’-fluoropropiophenone]
Human α4β2-nAChR
  IC50: 71 µM
Human NET
  IC50: 0.135 ± 0.036 µM
  fold more potent than 2a in inhibition of NE uptake: 14 fold
Human α3β4*-nAChR
  IC50: 35 µM
Human DAT
  IC50: 0.156 ± 0.046 µM
  fold more potent than 2a in inhibition of DA uptake: 4 fold

## CC(C(=O)c1cccc(Br)c1)N1CCCC1 (stereo not drawn) [Compound 2bb, 2-(N-Pyrrolidinyl)-3’-bromopropiophenone]
Human α4β2-nAChR
  IC50: 74 µM
Human α4β4-nAChR
  IC50: 64 µM
Human NET
  IC50: 1.18 ± 0.27 µM
Human α3β4*-nAChR
  IC50: 11 µM
[1]
  IC50: 19 µM
Human DAT
  IC50: 0.75 ± 0.173 µM

## CC(NC(C)(C)C)C(=O)c1cccc(Br)c1 (stereo not drawn) [Compound 2c]
[2]
  times more potent than 2a in blocking nicotine-induced antinociception in the tail-flick test: ~ 10 fold

## Cc1cccc(C(=O)C(C)N2CCCC2)c1 (stereo not drawn) [Compound 2cc, 2-(N-Pyrrolidinyl)-3’-methylpropiophenone]
Human α4β2-nAChR
  IC50: 56 µM
Human NET
  IC50: 0.577 ± 0.061 µM
Human α3β4*-nAChR
  IC50: 11 µM
[1]
  IC50: 53 µM
Human DAT
  IC50: 0.414 ± 0.089 µM

## Cc1cccc(C(=O)C(C)NC(C)(C)C)c1 (stereo not drawn) [Compound 2d]
[2]
  times more potent than 2a in blocking nicotine-induced antinociception in the tail-flick test: 24 fold

## COc1cccc(C(=O)C(C)N2CCCC2)c1 (stereo not drawn) [Compound 2dd, 2-(N-Pyrrolidinyl)-3’-methoxypropiophenone]
Human α4β2-nAChR
  IC50: 57 µM
Human NET
  IC50: 0.718 ± 0.13 µM
Human α3β4*-nAChR
  IC50: 16 µM
[1]
  IC50: 87 µM
Human DAT
  IC50: 0.452 ± 0.082 µM

## CC(C(=O)c1cccc([N+](=O)[O-])c1)N1CCCC1 (stereo not drawn) [Compound 2ee, 2-(N-Pyrrolidinyl)-3’-nitropropiophenone]
Human NET
  IC50: 4.1 ± 0.54 µM
Human α3β4*-nAChR
  IC50: 53 µM
Human DAT
  IC50: 10 ± 1.9 µM

## CC(C(=O)c1cccc(Cl)c1)N1CCCCC1 (stereo not drawn) [Compound 2ff]
[2]
  times more potent than 2a in blocking nicotine-induced antinociception in the tail-flick test: 24 fold

## CC(NC(C)(C)C)C(=O)c1ccc(Br)cc1 (stereo not drawn) [Compound 2h]
[2]
  times more potent than 2a in blocking nicotine-induced antinociception in the tail-flick test: ~ 10 fold

## Cc1ccc(C(=O)C(C)NC(C)(C)C)cc1 (stereo not drawn) [Compound 2i]
[2]
  times more potent than 2a in blocking nicotine-induced antinociception in the tail-flick test: ~ 10 fold

## CC(NC(C)(C)C)C(=O)c1ccc(F)c(F)c1 (stereo not drawn) [Compound 2j]
[2]
  times more potent than 2a in blocking nicotine-induced antinociception in the tail-flick test: 24 fold

## CC(NC(C)(C)C)C(=O)c1cc(Cl)cc(Cl)c1 (stereo not drawn) [Compound 2n]
[2]
  times more potent than 2a in blocking nicotine-induced antinociception in the tail-flick test: 43 fold

## CCC(NC(C)(C)C)C(=O)c1ccc(Cl)c(Cl)c1 (stereo not drawn) [Compound 2w]
[2]
  times more potent than 2a in blocking nicotine-induced antinociception in the tail-flick test: 24 fold

Source: publication PMC2841507 (Journal of medicinal chemistry, 2010)
